US9840494B2, “Quinazoline derivative” (Tianjin Hemay Oncology Pharmaceutical Co., Ltd., priority 2013, dated 2017)
Where two headings read alike, the source gives them in different places.

Test: Bioavailability assay in rats, Experiment I (dihydrochloride)
Assay type: in vivo
Conditions: Wistar rats; for half-life: read-out: T½ elimination half-life (converted)
Protocol: Experiment I. Bioavailability Assay for N-[4-(3-chloro-4-fluorophenylamino)-7-(2-methoxyethoxy)quinazolin-6-yl]-2-[1-(2-methoxyethyl)piperidin-4-ylidene]acetamide Dihydrochloride in Rats
12 Wistar rats (male, weighing 200-220 g) were purchased from Beijing Vital River Laboratory Animal Technology Co., Ltd. License No.: SCXK (Beijing) 2007-0001.
2.1 30 mg of N-[4-(3-chloro-4-fluorophenylamino)-7-(2-methoxyethoxy)quinazolin-6-yl]-2-[1-(2-methoxyethyl)piperidin-4-ylidene]acetamide dihydrochloride was weighted, and 6 ml of ultrapure water was added thereto to prepare a sample solution (5 mg/ml)) for use in intravenous administration.
2.2 30 mg of N-[4-(3-chloro-4-fluorophenylamino)-7-(2-methoxyethoxy)quinazolin-6yl]-2-[1-(2-methoxyethyl)piperidin-4-ylidene]acetamide dihydrochloride was weighted, and 12 ml of ultrapure water was added thereto to prepare a sample solution (2.5 mg/ml)) for use in intragastric administration.
4.1.1 HPLC Conditions: chromatographic column: octadecyl-bonded silica gel as filler (4.6 mm×50 mm, 1.8 μm), Agilent; mobile phase: methanol: 5 mM ammonium acetate (PH4.0) (60: 40); flow rate: 1 ml/min; column temperature: 40° C.
Ion: 544.3→457.1 (N-[4-(3-chloro-4-fluorophenylamino)-7-(2-methoxyethoxy)quinazolin-6-yl]-2-[1-(2-methoxyethyl)piperidin-4-ylidene]acetamide dihydrochloride)
Dwell Time: 80; fragment voltage: 180; collision energy: 25;
1 mg of N-[4-(3-chloro-4-fluorophenylamino)-7-(2-methoxyethoxy)quinazolin-6-yl]-2-[1-(2-methoxyethyl)piperidin-4-ylidene]acetamide dihydrochloride was weighted and formulated into a solution in methanol (1 mg/ml)). The solution was then diluted stepwise into standard solutions of 50 ng/ml, 100 ng/ml, 200 ng/ml, 500 ng/ml, 1 μg/ml, 2 μg/ml, 5 μg/ml, 10 μg/ml, 20 μg/ml, 50 μg/ml, and 100 μg/ml. 10 μl of the standard solutions were separately pipetted into centrifuge tubes (1.5 ml). 10 μl of internal standard (1 μg/ml Lipitor solution in methanol) was added thereto. 100 μl of rat plasma was then added thereto. The mixture was vortexed. Then 200 μl of acetonitrile was added to precipitate protein, then vortexed for 1 min and centrifuged at 16000 r/min for 8 min 10 μl of the supernatant was directly injected for measurement.
12 rats were randomly divided into two groups, i.e. six rats per group. These rats were fasted and ad libitum accessed to water for 12 hours before administration. Blank blood (about 0.5 ml) of each rat was withdrawn, and then N-[4-(3-chloro-4-fluorophenylamino)-7-(2-methoxyethoxy)quinazolin-6-yl]-2-[1-(2-methoxyethyl)piperidin-4-ylidene]acetamide dihydrochloride (20 mg/kg) was administrated via intragastric gavage and tail intravenous injection, respectively. Blood (about 0.5 ml) was withdrawn from the orbital venous plexus at different time points after the administration (blood collection points for tail intravenous administration were: 5 min, 15 min, 0.5 h, 1 h, 2 h, 3 h, 4 h, 6 h, 8 h, 12 h, 18 h, 24 h, 30 h; and blood collection time-points for intragastric administration were: 5 min, 10 min, 20 min, 30 min, 45 min, 1 h, 2 h, 3 h, 4 h, 6 h, 8 h, 12 h, 18 h, 24 h, 30 h). The blood was drawn into a heparinized centrifuge tube and centrifuged at 8000 r/min for 10 min 100 μl of the plasma was pipetted into a centrifuge tube (1.5 ml), and 10 μl of internal standard (1 μg/ml atorvastatin hemi-calcium salt solution in methanol) was added thereto. The resulting mixture was vortexed. Then 200 μl of acetonitrile was added to precipitate protein, vortexed for 1 min and centrifuged at 16000 r/min for 8 min The supernatant was recovered, and 10 μl of the supernatant was directly injected for detection.
5.1 A standard curve with the natural logarithm of the sample concentration as abscissa and the natural logarithm of the peak area ratio of the sample to the internal standard as ordinate was established as: y=1.008x−4.149; R2=0.998
Method for the calculation of bioavailability: F=(AUCig×Div)/(AUCiv×Dig)×100% […]

[1] = male, rat, plasma, oral, 20 mg/kg ig, read-out: Average Plasma Drug Concentration
[2] = male, rat, plasma, po, 20 mg/kg ig
[3] = male, rat, plasma, 20 mg/kg iv, read-out: Average Plasma Drug Concentration

**Q.** Which “K (elimination rate constant)” value (20 mg/kg iv) does the source give for `COCCOc1cc2ncnc(Nc3ccc(F)c(Cl)c3)c2cc1NC(=O)C=C1CCN(CCOC)CC1.Cl.Cl` [Compound 2, N-[4-(3-chloro-4-fluorophenylamino)-7-(2-methoxyethoxy)quinazolin-6yl]-2-[1-(2-methoxyethyl)piperidin-4-ylidene]acetamide dihydrochloride] here?
**A.** Its value is 0.14.

**Q.** And the bioavailability (male, rat, plasma, oral, 20 mg/kg ig vs 20 mg/kg iv)?
**A.** Its bioavailability is 56.9%.

**Q.** And the concentration at 0.167 h (male, rat, plasma, oral, 20 mg/kg ig, 0.167 h, read-out: Average Plasma Drug Concentration)?
**A.** The concentration at 0.167 h was 0.0394 µg/mL.

**Q.** What about the concentration at 0.33 h (male, rat, plasma, oral, 20 mg/kg ig, 0.33 h, read-out: Average Plasma Drug Concentration) of the same compound?
**A.** The concentration at 0.33 h was 0.145 µg/mL.

**Q.** What about the concentration at 0.5 h [1] of the same compound?
**A.** The concentration at 0.5 h was 0.202 µg/mL.

**Q.** What about the concentration at 0.75 h (male, rat, plasma, oral, 20 mg/kg ig, 0.75 h, read-out: Average Plasma Drug Concentration) of the same compound?
**A.** Its concentration at 0.75 h is 0.285 µg/mL.

**Q.** And the concentration at 1 h [1]?
**A.** The concentration at 1 h was 0.342 µg/mL.

**Q.** And the concentration at 2 h [1]?
**A.** Its concentration at 2 h is 0.342 µg/mL.

**Q.** And the concentration at 3 h [1]?
**A.** The concentration at 3 h was 0.406 µg/mL.

**Q.** And the concentration at 4 h [1]?
**A.** The concentration at 4 h was 0.468 µg/mL.

**Q.** And the concentration at 6 h [1]?
**A.** The concentration at 6 h was 0.536 µg/mL.

**Q.** What about the concentration at 8 h [1] of the same compound?
**A.** The concentration at 8 h was 0.495 µg/mL.

**Q.** What about the concentration at 12 h [1] of the same compound?
**A.** The concentration at 12 h was 0.33 µg/mL.

**Q.** And the concentration at 18 h [1]?
**A.** Its concentration at 18 h is 0.139 µg/mL.

**Q.** What about the concentration at 24 h [1] of the same compound?
**A.** Its concentration at 24 h is 0.0724 µg/mL.

**Q.** What about the concentration at 30 h [1] of the same compound?
**A.** Its concentration at 30 h is 0.0227 µg/mL.

**Q.** And the concentration at 0.083 h (male, rat, plasma, oral, 20 mg/kg intragastric gavage (ig), read-out: Average Plasma Drug Concentration)?
**A.** The concentration at 0.083 h was 0.0171 µg/mL.

**Q.** What about the AUC [2] of the same compound?
**A.** Its AUC is 7.35 µg·h/mL.

**Q.** And the half-life [2]?
**A.** The half-life was 4.73 h.

**Q.** And the AUC (male, rat, plasma, 20 mg/kg iv)?
**A.** The AUC was 12.9 µg·h/mL.

**Q.** What about the concentration at 0.25 h (male, rat, plasma, 20 mg/kg iv, 0.25 h, read-out: Average Plasma Drug Concentration) of the same compound?
**A.** The concentration at 0.25 h was 3.24 µg/mL.

**Q.** And the concentration at 0.5 h [3]?
**A.** The concentration at 0.5 h was 2.7 µg/mL.

**Q.** What about the concentration at 1 h [3] of the same compound?
**A.** Its concentration at 1 h is 1.72 µg/mL.

**Q.** And the concentration at 2 h [3]?
**A.** The concentration at 2 h was 1.33 µg/mL.

**Q.** What about the concentration at 3 h [3] of the same compound?
**A.** Its concentration at 3 h is 0.989 µg/mL.

**Q.** What about the concentration at 4 h [3] of the same compound?
**A.** Its concentration at 4 h is 0.748 µg/mL.

**Q.** What about the concentration at 6 h [3] of the same compound?
**A.** The concentration at 6 h was 0.557 µg/mL.

**Q.** And the concentration at 8 h [3]?
**A.** The concentration at 8 h was 0.547 µg/mL.

**Q.** And the concentration at 12 h [3]?
**A.** The concentration at 12 h was 0.325 µg/mL.

**Q.** And the concentration at 18 h [3]?
**A.** The concentration at 18 h was 0.181 µg/mL.

**Q.** What about the concentration at 24 h [3] of the same compound?
**A.** The concentration at 24 h was 0.0808 µg/mL.

**Q.** And the concentration at 30 h [3]?
**A.** Its concentration at 30 h is 0.0296 µg/mL.

**Q.** What about the half-life (male, rat, plasma, 20 mg/kg iv) of the same compound?
**A.** Its half-life is 5.18 h.

**Q.** What about the concentration at 0.083 h (male, rat, plasma, 20 mg/kg tail intravenous injection (iv), read-out: Average Plasma Drug Concentration) of the same compound?
**A.** Its concentration at 0.083 h is 4.85 µg/mL.
